From patent US12527788B2, “Defining RNA-small molecule affinity landscapes enables design of a small molecule inhibitor of an oncogenic non-coding RNA” (University of Florida Research Foundation, Incorporated, priority 2017, dated 2026) come the findings set out here.

The target in one assay is selected RNA motifs. Description: In solution fluorescence-based binding affinity measurement. The note with it: read-out: Average Kd of Selected RNA Binders. As to the method: Bound RNA motifs for each compound were harvested from the array surface, amplified, and identified by using high throughput sequencing (RNA-seq). Highly abundant RNAs in the sequencing data were then subjected to binding measurements. Typically, those RNAs that were highly enriched bound to the small molecules with affinities (Kds) that ranged from 1 to 10 μM (FIG. 2 and Table 1) while binding to the starting libraries was not saturable. These affinities are promising for binding RNA, as it has been difficult to acquire low micromolar affinity with compounds of this low molecular weight. In fact, RNAs that have undergone Darwinian evolution to bind small molecules, namely riboswitches, often bind their cognate ligand at […] concentrations;^30-33 bioactive compounds that mimic riboswitch ligands bind with similar affinities.^30,34
(§1) Binding Affinity Measurements: An in solution, fluorescence-based assay was used to determine binding affinities by monitoring the change in fluorescence intensity of 1-FL (or 2-FL/3-FL/4-FL) as a function of RNA concentration as described previously.^18 Briefly, the RNA of interest was folded in 1× Folding Buffer (8 mM Na2HPO4, pH 7.0, 185 mM NaCl and 1 mM EDTA) by heating at 60° C. for 5 min followed by slowly cooling to room temperature on the bench top. Then, the FL-conjugated compound was added into the RNA solution to a final concentration of 100 nM. Serial dilutions were then completed using 1× Folding Buffer supplemented with 100 nM FL-conjugated compound. The solutions were incubated at room temperature for 30 min and then transferred to a well of a black 384-well plate. Fluorescence intensity was measured using a Bio-Tek FL×800 plate reader with an excitation wavelength of 485/20 nm and an emission wavelength of 528/20 nm. The change in fluorescence intensity as a function of the concentration of RNA was fit to equation 3:^9 I=I0+0.5 Δε{([FL]0+[RNA]0 +Kd)−(([FL]0+[RNA]0+Kd)^2−4[FL]0[RNA]0)^1/2} (3) where I is the observed fluorescence intensity; I0 is the fluorescence intensity in the absence of RNA; Δε is the difference between the fluorescence intensity in the absence of RNA and in the presence of infinite RNA concentration; [FL]0 is the concentration of compound; [RNA]0 is the concentration of the selected RNA; and Kd is the dissociation constant.

For assay [1], the target named is RNA1 (5′G_U/3′CUA U bulge of Dicer sites in miR-17, -18a and -20a). Description: Fluorescence-based binding affinity measurement. The arrangement: species or system human. As to the method: (§2) FIG. 7: Secondary structures of the nucleic acids to which the binding of small molecule 4 was assessed. […] RNA1 contains the U bulge present in the Dicer processing site common to miR-17, -18a and -20a. RNA2 contains the A bulge that is present in miR-18a. RNA3 contains the G bulge present in miR-17 and miR-20a. Binding affinities (Kd's) are indicated in parentheses and are reported in micromolar.
(§3) Mutation of the U bulge to an AU pair (RNAC) eliminates binding (Kd>100 μM).
as §1

Assay [2] has as its target RNA2 (A bulge of the miR-18a precursor). Description: Fluorescence-based binding affinity measurement. Also on record: species or system human. How it is done: as §2, §3, §1
Assay [3] addresses RNA3 (G bulge of the miR-17 and miR-20a precursors). The assay is described as follows: Fluorescence-based binding affinity measurement. The arrangement: species or system human. How it is done: as §2, §3, §1
Assay [4] concerns 33 mature miRNAs with potential binding sites for 4. Description: Profiling of mature miRNAs with potential binding sites in DU145 cells. The format is cell-based, human. The source says:
We further probed the selectivity of 4 by studying its effect on levels of other mature miRNAs (FIG. 8C) and on pre-miR-17, -18a and -20a. We identified miRNAs with potential binding sites for 4, as determined by HiT-StARTS, using a database of RNA folds in the human miRNA transcriptome,^38 including the 5′G_U/3′CUA bulge common to the Dicer processing sites in miR-17, -18a and -20a (n=33). The potential binding sites for 4 can occur anywhere in the miRNA; that is, they were not confined to Drosha or Dicer processing sites. Other miRNAs that contain the 5′G_U/3′CUA motif have a much lower expression level than miR-17, miR-18a, and miR-20. Studying these RNAs could allow assessment of influence of expression level on compound potency and selectivity, an important consideration in RNA targeting that has largely gone unaddressed.
Collectively, it appears that it is easier to target and inhibit the biogenesis of highly expressed miRNAs than the ones that are of lower expression. Such effects have been well-documented in the protein-targeting community but until now have not been studied in RNA targeting endeavors.
Cell Culture: DU145 cells were cultured in growth medium (Roswell Park Memorial Institute medium (RPMI) supplemented with 10% fetal bovine serum (FBS)) at 37° C. and 5% CO2 […]

The next assay has as its system pre-miR-17. The assay is described as follows: Chem-CLIP in DU145 cell lysates. The class given is binding, human. The note with it: 10 μM, DU145 cell lysate. As to the method:
(§4) Chem-CLIP in Cell Lysates: DU145 cells were cultured as described above in 100 mm dishes and lysed with 500 μL of Cell Lysis Buffer (10 mM Tris pH 7.4, 0.25% Igepal CA-630 and 150 mM NaCl) for 5 min at room temperature. The cell lysate was then centrifuged and the supernatant collected. Next, 10 μM of 4 was added to the lysate in 1×PBS and the sample was incubated for 2 h at room temperature. The reaction was then directly used for pull-down by incubating with 50 μL of streptavidin resin in 1×PBS for 30 min at room temperature. […] RNA was eluted from the streptavidin beads by incubation with 100 μL of 1× Elution Buffer (10 mM EDTA and 95% formamide) at 65° C. for 20 min. The eluted RNA was cleaned up using a Quick-RNA Miniprep Kit (Zymo) per the manufacturer's protocol. RT-qPCR was completed as described above using 50 ng of total RNA in the RT reaction. Expression levels were normalized to 18S rRNA.

For a further assay, the system named is pre-miR-18a. The assay is described as follows: Chem-CLIP in DU145 cell lysates. The format is binding, human. The note with it: 10 μM, DU145 cell lysate. As to the method:
as §4

In a further assay the test system is pre-miR-20a. Description: Chem-CLIP in DU145 cell lysates. The format is binding, human. The note with it: 10 μM, DU145 cell lysate. How it is done:
as §4

In the case of `CN1CCN(c2ccc(-c3ccc4nc(-c5cc(C(C)(C)C)c(OCCCC(=O)NCCCN=[N+]=[N-])c(C(C)(C)C)c5)[nH]c4c3)cc2)CC1` [Compound 4], the Kd (commonly the equilibrium constant for the complex coming apart) on selected RNA motifs worked out at 11 ± 2 µM; in assay [1], 30 ± 2 µM; in assay [2], 32 ± 5 µM; in assay [3], 40 ± 6 µM. For the same molecule, the “Effect on levels of 33 other mature miRNAs” value in assay [4] was “no statistically significant effect”. Besides, the results for the “Enrichment in pulled-down fraction” value in the assay with pre-miR-17, in the assay on pre-miR-18a and in the assay with pre-miR-20a were around 2 fold, around 4 fold and around 2 fold, respectively.
